The source of these data is paper PMC11645267, “Novel pharmacologic inhibition of lysine-specific demethylase 1 as a potential therapeutic for glioblastoma” (Cancer Gene Therapy, 2024).

The subject of this assay is LN229. Description: Western blot of global histone modifications. To be noted: LN229, 5 μM, 96 h. Type of assay: cell-based. Here is the method: The effects of S2172 on global histone modifications in GSCs were examined using western blot analysis. GSC cells were treated with 5 μM of S2172 since […] of the cells are still viable at this concentration (Fig. 2, Supplementary Fig. S1E). […] Treatment of GSCs with S2172 increased the overall levels of H3K4me2 as well as H3K9me2. However, these changes were not statistically significant (Fig. 2A, B). […]
instructions. For GSC cells, the CellTiter-Glo 3D Viability Assay (Promega, Madison, WI, USA) was used to measure the living cells. All proliferation experiments were repeated […]
The density of bands was quantified using ImageJ software (https://imagej.nih.gov/ij/). […]
When mice were scanned with MRI, mice were anesthetized with isoflurane (3% in air) and placed in MRS 3017 Benchtop MRI Systems (MR Solutions, Guildford, UK). Using MRI images, tumor volumes were obtained by compiling tumor areas from all slices that contained tumors and calculated by ImageJ software (https://imagej.nih.gov/ij/) {Towner, […]
A. Western blot analysis (left panel) of H3K4me1, H3K4me2, H3K4me3, and H3K9me2 after treatment with either DMSO or S2172 5μM for 96 h in LN229. […] Quantification of signal intensity of western blot (right panel). […] Ratio was calculated by dividing cleaved band intensity by total protein band intensity. […]
A general note: Immunoblotting shows a protein as a band on a membrane.

In the case of `NC1CCC(NC2CC2c2cc(F)cc(F)c2OCc2ccccc2)CC1` (stereo not shown) [S2172], the “level of H3K4me2” value was “significantly increased”.
